# Activity calls are given as the source filed them.
# Key:
# Type in all cases: functional
# [1] = molecular target: T1, Neuropeptide Y receptor type 1 (Homo sapiens) (UniProt P25929); test: Antagonist activity at neuropeptide Y receptor Y1 at 10 uM
# T1 sequence (whole entry): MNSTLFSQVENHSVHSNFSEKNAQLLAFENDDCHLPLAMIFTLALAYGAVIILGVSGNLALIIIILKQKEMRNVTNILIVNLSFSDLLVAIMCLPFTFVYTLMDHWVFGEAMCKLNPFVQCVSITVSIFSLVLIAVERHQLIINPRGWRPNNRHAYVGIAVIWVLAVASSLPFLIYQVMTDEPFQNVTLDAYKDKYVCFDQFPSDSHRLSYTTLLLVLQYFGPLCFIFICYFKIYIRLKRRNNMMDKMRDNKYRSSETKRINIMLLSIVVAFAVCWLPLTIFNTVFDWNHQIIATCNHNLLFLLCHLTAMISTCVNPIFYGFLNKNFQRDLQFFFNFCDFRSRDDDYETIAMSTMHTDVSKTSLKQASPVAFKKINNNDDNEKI
# [2] = molecular target: T2, Neuropeptide Y receptor type 2 (Homo sapiens, UniProt P49146); test: Antagonist activity at neuropeptide Y receptor Y2
# T2 sequence (P49146 whole entry): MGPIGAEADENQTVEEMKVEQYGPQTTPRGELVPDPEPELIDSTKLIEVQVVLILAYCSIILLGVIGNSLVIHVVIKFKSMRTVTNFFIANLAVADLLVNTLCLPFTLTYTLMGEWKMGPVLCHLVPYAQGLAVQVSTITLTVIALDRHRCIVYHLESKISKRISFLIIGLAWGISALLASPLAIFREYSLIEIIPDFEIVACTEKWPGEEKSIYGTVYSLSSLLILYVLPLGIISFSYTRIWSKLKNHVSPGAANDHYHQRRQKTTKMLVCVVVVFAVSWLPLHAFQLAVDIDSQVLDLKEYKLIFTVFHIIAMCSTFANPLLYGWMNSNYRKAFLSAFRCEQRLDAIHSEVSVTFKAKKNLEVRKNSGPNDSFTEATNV
# [3] = molecular target: T3, Neuropeptide Y receptor type 2 (Homo sapiens) (UniProt P49146); test: Antagonist activity at neuropeptide Y receptor Y2 at 10 uM
# T3 sequence (whole entry): T2 sequence (P49146 whole entry)
# [4] = molecular target: T2, Neuropeptide Y receptor type 2; test: Partial antagonist activity at neuropeptide Y receptor Y2
Activity [1],IC50 [2],Activity [3],IC50 [4],Structure (SMILES)
inactive,301 nM,–,–,CN(C)C(=O)c1ccc(NC(=S)N2CCC(C(O)(c3ccccc3)c3ccccc3)CC2)cc1
inactive,12 nM,–,–,CCN(CC)S(=O)(=O)c1ccc(OC(=O)N2CCC(C(O)(c3ccccc3)c3ccccc3)CC2)cc1
inactive,394 nM,–,–,CS(=O)(=O)Nc1ccc(OC(=O)N2CCC(C(O)(c3ccccc3)c3ccccc3)CC2)cc1
inactive,899 nM,–,–,CC(C)Oc1ccc(NC(=S)N2CCC(C(O)(c3ccccc3)c3ccccc3)CC2)cc1C#N
inactive,72 nM,–,–,CCN(CC)c1ccc(NC(=S)N2CCC(C(O)(c3ccccc3)c3ccccc3)CC2)cc1
inactive,141 nM,–,–,CS(=O)(=O)c1ccc(OC(=O)N2CCC(C(O)(c3ccccc3)c3ccccc3)CC2)cc1
inactive,777 nM,–,–,CCCc1ccc(NC(=S)N2CCC(C(O)(c3ccccc3)c3ccccc3)CC2)cc1
inactive,59 nM,–,–,CCS(=O)(=O)c1ccc(OC(=O)N2CCC(C(O)(c3ccccc3)c3ccccc3)CC2)cc1
inactive,323 nM,–,–,CCOc1ccc(NC(=S)N2CCC(C(O)(c3ccccc3)c3ccccc3)CC2)cc1C#N
inactive,121 nM,–,–,CCNS(=O)(=O)c1ccc(NC(=S)N2CCC(C(O)(c3ccccc3)c3ccccc3)CC2)cc1
inactive,61 nM,–,–,CN(C)S(=O)(=O)c1ccc(OC(=O)N2CCC(C(O)(c3ccccc3)c3ccccc3)CC2)cc1
inactive,207 nM,–,–,CCOC(=O)c1ccc(NC(=S)N2CCC(C(O)(c3ccccc3)c3ccccc3)CC2)cc1
inactive,85 nM,–,–,CCN(CC)c1ccc(NC(=S)N2CCC(C(O)(c3ccccc3)c3ccccc3)CC2)cc1Cl
inactive,–,inactive,–,CCC(=O)Nc1ccc(OC(=O)N2CCC(C(O)(c3ccccc3)c3ccccc3)CC2)cc1
inactive,19 nM,–,–,CN(C)S(=O)(=O)c1ccc(NC(=S)N2CCC(C(O)(c3ccccc3)c3ccccc3)CC2)cc1
inactive,612 nM,–,–,CN(C)c1ccc(NC(=S)N2CCC(C(O)(c3ccccc3)c3ccccc3)CC2)cc1
inactive,–,inactive,–,CN(C)S(=O)(=O)c1ccc(NC(=S)N2CCC(C(O)(c3ccccc3)c3cccnc3)CC2)cc1 (stereo unspecified)
inactive,1770 nM,–,–,CC(C)Oc1ccc(NC(=S)N2CCC(C(O)(c3ccccc3)c3ccccc3)CC2)cc1

Activity [1],IC50 [2],Activity [3],IC50 [4],Structure (SMILES)
inactive,49 nM,–,–,O=C(Oc1ccc(S(=O)(=O)N2CCCC2)cc1)N1CCC(C(O)(c2ccccc2)c2ccccc2)CC1
inactive,1100 nM,–,–,COc1ccc(NC(=S)N2CCC(C(O)(c3ccccc3)c3ccccc3)CC2)cc1
inactive,117 nM,–,–,O=S(=O)(c1ccc(NC(=S)N2CCC(C(O)(c3ccccc3)c3ccccc3)CC2)cc1)N1CCCC1
inactive,–,inactive,–,CCOc1ccc(NC(=S)N2CCC(C(O)(c3ccccc3)c3ccccc3)CC2)c(C)c1
inactive,1580 nM,–,–,CCOc1ccc(OC(=O)N2CCC(C(O)(c3ccccc3)c3ccccc3)CC2)cc1
inactive,2680 nM,–,–,COc1ccc(OC(=O)N2CCC(C(O)(c3ccccc3)c3ccccc3)CC2)cc1
inactive,220 nM,–,–,CCN(CC)C(=O)c1ccc(OC(=O)N2CCC(C(O)(c3ccccc3)c3ccccc3)CC2)cc1
inactive,136 nM,–,–,CCN(CC)S(=O)(=O)c1ccc(NC(=S)N2CCC(C(O)(c3ccccc3)c3ccccc3)CC2)cc1
inactive,1420 nM,–,–,CNC(=O)c1ccc(NC(=S)N2CCC(C(O)(c3ccccc3)c3ccccc3)CC2)cc1
inactive,–,inactive,–,OC(c1ccccc1)(c1ccccc1)C1CCN(C(=S)Nc2ccccc2)CC1
inactive,–,inactive,–,CC(=O)Nc1ccc(OC(=O)N2CCC(C(O)(c3ccccc3)c3ccccc3)CC2)cc1
inactive,206 nM,–,–,CCNC(=O)c1ccc(NC(=S)N2CCC(C(O)(c3ccccc3)c3ccccc3)CC2)cc1
inactive,–,inactive,–,CCOc1ccc(NC(=S)N2CCC(C(O)(c3ccccc3)c3ccccc3)CC2)c(C(F)(F)F)c1
inactive,–,inactive,–,CCN(CC)S(=O)(=O)c1cccc(OC(=O)N2CCC(C(O)(c3ccccc3)c3ccccc3)CC2)c1
inactive,–,inactive,–,OC(c1ccccc1)(c1ccccc1)C1CCN(C(=S)Nc2cccc(C(F)(F)F)c2)CC1
inactive,–,inactive,–,CCN(CC)C(=O)c1cccc(OC(=O)N2CCC(C(O)(c3ccccc3)c3ccccc3)CC2)c1
inactive,1350 nM,–,–,CCOc1ccc(NC(=S)N2CCC(C(O)(c3ccccc3)c3ccccc3)CC2)c(F)c1

# Second part, the compound before the results:
Structure (SMILES),Activity [1],IC50 [2],Activity [3],IC50 [4]
OC(c1ccccc1)(c1ccccc1)C1CCN(C(=S)Nc2ccc(OC(F)(F)F)cc2)CC1,inactive,1050 nM,–,–
CCOc1ccc(NC(=S)N2CCC(C(O)c3ccccc3)CC2)cc1 (stereo unspecified),inactive,–,inactive,–
Cc1ccc(S(=O)(=O)C(c2ccccc2)c2c(C)noc2C)cc1 (stereo unspecified),–,4400 nM,–,–
OC(c1ccccc1)(c1ccccc1)C1CCN(C(=S)Nc2ccc(N3CCCC3)cc2)CC1,inactive,1200 nM,–,–
OC(c1ccccc1)(c1ccccc1)C1CCN(C(=S)Nc2ccc(C(F)(F)F)cc2Cl)CC1,inactive,–,inactive,–
COc1cccc(NC(=S)N2CCC(C(O)(c3ccccc3)c3ccccc3)CC2)c1,inactive,–,–,8160 nM
CCOc1ccc(NC(=S)N2CCN(C(c3ccccc3)c3ccccc3)CC2)cc1,inactive,371 nM,–,–
CN(C)S(=O)(=O)c1ccc(NC(=S)N2CCC(C(O)(c3ccccc3)c3ccc(F)cc3)CC2)cc1 (stereo unspecified),inactive,89 nM,–,–
CCOc1ccc(NC(=S)N2CCC(C(c3ccccc3)c3ccccc3)CC2)cc1,inactive,> 10000 nM,–,–
CN(C)S(=O)(=O)c1ccc(NC(=S)N2CCC(C(O)(c3ccccc3)c3ccoc3)CC2)cc1 (stereo unspecified),inactive,–,inactive,–
CN(C)S(=O)(=O)c1ccc(NC(=S)N2CCC(C(O)(c3ccccc3)c3ccsc3)CC2)cc1 (stereo unspecified),inactive,248 nM,–,–
CN(C)S(=O)(=O)c1ccc(NC(=S)N2CCC(C(O)(c3ccccc3)c3ccccn3)CC2)cc1 (stereo unspecified),inactive,98 nM,–,–
OC(c1ccccc1)(c1ccccc1)C1CCN(C(=S)Nc2ccc(C(F)(F)F)cc2)CC1,inactive,178 nM,–,–
CCOc1ccc(NC(=S)N2CCC(C(O)(c3ccccc3)C3CCCCC3)CC2)cc1 (stereo unspecified),inactive,–,inactive,–
CCOc1ccc(NC(=S)N2CCC(=C(c3ccccc3)c3ccccc3)CC2)cc1,inactive,–,inactive,–
CCN(CC)C(=O)c1ccc(NC(=S)N2CCC(C(O)(c3ccccc3)c3ccccc3)CC2)cc1,inactive,78 nM,–,–
CCOC(=O)c1ccc(NC(=S)N2CCC(C(c3ccccc3)c3ccccc3)CC2)cc1,inactive,6760 nM,–,–
CCOc1ccc(NC(=S)N2CCC(C(O)(c3ccccc3)c3c(C)noc3C)CC2)cc1 (stereo unspecified),inactive,3300 nM,–,–
COC(c1ccccc1)(c1ccccc1)C1CCN(C(=S)Nc2ccc(S(=O)(=O)N(C)C)cc2)CC1,inactive,–,inactive,–
CN(C)S(=O)(=O)c1ccc(NC(=S)N2CCN(C(c3ccccc3)c3ccccc3)CC2)cc1,inactive,483 nM,–,–
CN(C)S(=O)(=O)c1ccc(NC(=S)N2CCN(C3c4ccccc4NC(=O)c4ccccc43)CC2)cc1 (stereo unspecified),inactive,67 nM,–,–
CCOc1ccc(NC(=S)N2CCC(C(O)(c3ccccc3)c3ccccc3)CC2)cc1,inactive,190 nM,–,–
COc1ccc(NC(=S)N2CCC(C(O)(c3ccccc3)c3ccccc3)CC2)cc1C(F)(F)F,inactive,–,–,6080 nM
OC(c1ccccc1)(c1ccccc1)C1CCN(C(=S)Nc2ccc(N3CCCCC3)cc2)CC1,inactive,–,–,271 nM
CN(C)S(=O)(=O)c1ccc(NC(=S)N2CCN(C3c4ccccc4CCc4ccccc43)CC2)cc1,inactive,–,inactive,–
Cc1ccc(C)c(NS(=O)(=O)c2cc(C(=O)Nc3ccccc3-c3ccccc3)ccc2C)c1,–,440 nM,–,–
COc1cccc(-c2nc(-c3ccc(NC(=O)Cc4ccccc4OC)cc3)no2)c1,–,1200 nM,–,–
